{
  "source": "patent US12251366B1",
  "about": "“Sulforaphane-cysteine for wound healing in diabetic subjects” (KUWAIT UNIVERSITY, priority 2024, dated 2025)",
  "key": {"IL-6": {"tested_on": "IL-6", "test": "Real-time PCR, LPS-induced IL-6 mRNA in peritoneal macrophages", "assay_type": "cell-based, mouse", "details": "LPS 100 ng/mL, 1.5 umol/L, RT-PCR", "procedure": "Additional tests were conducted to determine whether SFN-Cys also suppresses TNF-α and IL-6 expression at the mRNA level.\n(§1) Thioglycollate-elicited mouse peritoneal macrophages were prepared from C57BL (8-10 weeks old) and cultured in RPMI 1640 with 10% (v/v) FCS Bone marrow-derived macrophages were generated in RPMI medium containing M-CSF (10 ng/mL) according to previously published procedure. For cytokine ELISA assay, cells were seeded at 5×10^5 in 12-well plates, whereas for mRNA expression, the cells were seeded at […]. LPS and used at a dose of 100 ng/mL. Similarly. SFN-Cys was used at a concentration of 1.5 umol/L.\nTotal RNA from cells or frozen sponge implants was extracted using the Trizol reagent (Invitrogen), and the RNA integrity was verified by agarose gel electrophoresis. Approximately 1 μg of RNA was reverse transcribed (Superscript II Reverse Transcriptase Kit, Invitrogen) and amplified using the TaqMan Assay on Demand (Applied Biosystems) in a 25 μL reaction volume containing two unlabeled primers, a 6-carboxyfluorescien-labeled TaqMan MGB probe and the master mix. The amplified sequences were assessed using the ABI 7500 Prism Sequence Detection system machine. The results were expressed as mRNA levels normalized to 18S or GAPDH in each sample."}, "full-thickness wounds": {"tested_on": "full-thickness wounds", "test": "In vivo wound closure assay, excisional wound healing rat model", "design": "species or system GK rats", "details": "for mitigation of diabetes-related impairment of wound healing compared with VEGF: animal model of (aged) type 2 diabetes; for wound closure / wound healing: rats, topical 1.5 μmol/wound in Pluronic acid every other day, day-0 through day-7", "procedure": "Successful wound healing necessitates a series of tightly coordinated and overlapping processes including inflammation, new tissue formation and remodeling. Fibroblasts, in response to growth factors-released mostly by macrophages, migrate to the site of injury, where they proliferate and lay down the extracellular matrix (ECM). Consequently, this facilitates cell migration and tissue reconstruction. The effect of a therapeutic concentration of SFN-Cys (1.5 μM) was investigated on the proliferation of fibroblasts isolated from the granulation tissue of control and diabetic wounds. Similarly, the effect of SFN-Cys on cell migration in the in vitro wound closure assay was also considered. […] Accordingly, in vivo wound closure properties of SFN-Cys were examined using an excisional wound healing rat model. SFN-Cys containing Pluronic acid was topically applied to the wound at a dose of 1.5 μmol concentration and the wound closure area was digitally photographed and quantified. Digital photographs were obtained on day-0 through day-7 of post wounding. […] In this context, the wound healing time-course was faster in SFN-Cys containing Pluronic acid than the Pluronic acid alone (FIG. 3C). […] VEGF is a well-established enhancer of the proliferative phase of healing.\nFor wounding experiments, 15-18-month female GK rats were anesthetized with intraperitoneal injection of ketamine/xylazine and full-thickness wounds were made in the mid dorsal skin with 8-mm disposable punches. To evaluate the effect of SFN-Cys on wound closure, the drug was dissolved initially with DMSO and then diluted with a 25% Pluronic acid solution at a dose of 1.5 μmol/wound; applied topically to the wound every other day. The wounds were photographed at 0-, 3- or 7-days post-wounding."}, "heme oxygenase (HO)": {"tested_on": "heme oxygenase (HO)", "test": "mRNA expression of Nrf2 target gene HO in fibroblasts", "assay_type": "cell-based, rat", "details": "diabetic fibroblasts, 1.5 μM", "procedure": "(§2) To better characterize how SFN-Cys impacts cellular antioxidant levels, the ability of SFN-Cys to regulate the transcription factor nuclear factor erythroid 2-related factor 2 (Nrf2) was assessed, which is a master regulator of the antioxidative stress response that induces the expression of antioxidant proteins such as heme oxygenase (HO) and NAD(P)H dehydrogenase (quinine; NQO1) and key enzymes in the glutathione system. In this context, Nrf2 transcriptional activity was first measured using a vector encoding luciferase driven by the NQO1 promoter. […] Administration of SNF-Cyst at the above indicated concentration (1.5 μM, the lowest effective concentration) ameliorated diabetes-induced suppression of the Nrf2 activity and Nrf2-target genes including HO and NQO1 (FIG. 2A-D).\n(§3) Total RNA from cells or frozen sponge implants was extracted using the Trizol reagent (Invitrogen), and the RNA integrity was verified by agarose gel electrophoresis. […] The amplified sequences were assessed using the ABI 7500 Prism Sequence Detection system machine. The results were expressed as mRNA levels normalized to 18S or GAPDH in each sample."}, "heme oxygenase": {"tested_on": "heme oxygenase", "test": "Tissue mRNA expression of heme oxygenase after SFN-Cys diet", "assay_type": "in vivo", "details": "heart, kidney, liver and skin; SFN-Cys diet 1.5-2.5 μmol/mouse, 21 days", "procedure": "(§4) Testing the pharmacodynamic and toxicodynamic properties of SFN-Cys dictated the mixing SFN-Cys with a powdered diet. The estimated dose delivered by this diet was 1.5-2.5 μmol/mouse (n=4). The SFN-Cys diet was stored at 4° C. and the feeders were refilled daily for the duration of the study (21 days). Corresponding animals received food without the drug.\n(§5) For dietary treatment with SFN-Cys, the SFN-Cys was mixed with a powdered diet (7.5 mg of SFN-Cys per kg of food). The estimated dose delivered by this diet was about 1.0-1.5 mg/kg. The diet was stored at 4° C. and the feeders were refilled daily. Control animals received diet alone. Body weights were recorded twice a week and at the termination of the study, blood was drawn in EDTA-containing tubes, plasma was collected by centrifugation and stored at −80° C. until analysis.\nas §3"}, "NQO1 [1]": {"tested_on": "NQO1", "test": "mRNA expression of Nrf2 target gene NQO1 in fibroblasts", "assay_type": "cell-based, rat", "details": "diabetic fibroblasts, 1.5 μM", "procedure": "as §2, §3"}, "[2]": {"tested_on": "bone marrow-derived macrophages", "test": "LPS-induced cytokines in bone marrow-derived macrophages", "assay_type": "cell-based, mouse", "procedure": "as §1, with “Additional tests were conducted to determine whether SFN-Cys also suppresses TNF-α and IL-6 expression at the mRNA level. […] Thioglycollate-elicited” for “Thioglycollate-elicited”"}, "NQO1 [3]": {"tested_on": "NQO1", "test": "Tissue mRNA expression of NQO1 after SFN-Cys diet", "assay_type": "in vivo", "details": "heart, kidney, liver and skin; SFN-Cys diet 1.5-2.5 μmol/mouse, 21 days", "procedure": "as §4, §5, §3"}, "fibroblasts (CF, DF)": {"tested_on": "fibroblasts (CF, DF)", "test": "In vitro wound healing repair assay (cell migration)", "assay_type": "cell-based, rat", "details": "1.5 μM, 24 hrs", "procedure": "Successful wound healing necessitates a series of tightly coordinated and overlapping processes including inflammation, new tissue formation and remodeling. Fibroblasts, in response to growth factors-released mostly by macrophages, migrate to the site of injury, where they proliferate and lay down the extracellular matrix (ECM). Consequently, this facilitates cell migration and tissue reconstruction. The effect of a therapeutic concentration of SFN-Cys (1.5 μM) was investigated on the proliferation of fibroblasts isolated from the granulation tissue of control and diabetic wounds. Similarly, the effect of SFN-Cys on cell migration in the in vitro wound closure assay was also considered. […] Accordingly, in vivo wound closure properties of SFN-Cys were examined using an excisional wound healing rat model. SFN-Cys containing Pluronic acid was topically applied to the wound at a dose of 1.5 μmol concentration and the wound closure area was digitally photographed and quantified. Digital photographs were obtained on day-0 through day-7 of post wounding. […] In this context, the wound healing time-course was faster in SFN-Cys containing Pluronic acid than the Pluronic acid alone (FIG. 3C). […]\nFibroblasts (1×10^5/well) were cultured until confluence. […] The closure of the wounded area was calculated using Image J software (NIH). Data are expressed as a percent of wound closure."}, "[4]": {"test": "Toxicity assessment of chronically administered SFN-Cys (body weight, behavior)", "assay_type": "in vivo, mouse", "details": "mice, 21 days", "procedure": "as §4\nTo strengthen this conclusion, extensive measurements were conducted on plasma levels of key parameters of kidney and liver toxicities in addition to the lipid and carbohydrate profiles.\nas §5"}},
  "note": "“Also recorded” adds a separate entry of the source.",
  "data": [
    {"smiles": "C[S+]([O-])CCCCNC(=S)SCC(N)C(=O)O", "note": "(centres unmarked) [SFN-Cys, Sulforaphane-Cysteine]", "values": [
      {"measurement": "LPS-induced IL-6 mRNA up-regulation", "setting": "IL-6", "value": "significantly inhibited"},
      {"measurement": "mitigation of diabetes-related impairment of wound healing compared with VEGF", "setting": "full-thickness wounds", "value": "better than vascular endothelial growth factor (VEGF)"},
      {"measurement": "mitigation of diabetes-related impairment of wound healing compared with VEGF", "setting": "full-thickness wounds; listed as SNF-Cys", "value": "more efficacious than vascular endothelial growth factor (VEGF)"},
      {"measurement": "wound closure / wound healing", "setting": "full-thickness wounds", "value": "enhanced wound closure; also recorded: ameliorated; also recorded: increases wound healing potential both in control and diabetic subjects"},
      {"measurement": "wound closure / wound healing", "setting": "full-thickness wounds; listed as SNF-Cys", "value": "ameliorated"},
      {"measurement": "mRNA expression of Nrf2 target gene HO", "setting": "heme oxygenase (HO)", "value": "ameliorated"},
      {"measurement": "mRNA expression of heme oxygenase relative to control", "setting": "heme oxygenase", "value": "about 3 folds"},
      {"measurement": "mRNA expression of Nrf2 target gene NQO1", "setting": "NQO1 [1]", "value": "ameliorated"},
      {"measurement": "suppression of LPS-induced TNF-α and IL-6 in bone marrow-derived macrophages", "setting": "[2]", "value": "analogous results were also seen"},
      {"measurement": "mRNA expression of NQO1 relative to control", "setting": "NQO1 [3]", "value": "about 3 folds"},
      {"measurement": "percentage of increase in cell migration, diabetics versus controls", "setting": "fibroblasts (CF, DF)", "value": "greater in diabetics as compared to controls"},
      {"measurement": "cell migration (in vitro wound closure)", "setting": "fibroblasts (CF, DF); CF and DF", "value": "enhanced cell migration not only in control but also in diabetic fibroblasts"},
      {"measurement": "body weight", "setting": "[4]; SFN-Cys diet, in g (unit assumed)", "value": "22.7±3.2"},
      {"measurement": "signs of adverse effect (body weight and behavior)", "setting": "[4]; chronic SFN-Cys diet", "value": "no obvious signs of adverse effect"}
    ]}
  ]
}
